# Results from patent US20210244735A1, “COMPOSITIONS AND METHODS FOR TREATING MYELOFIBROSIS” (Impact Biomedicines, Inc., priority 2010, published 2021).
# “Also recorded” adds a separate entry of the source. Structures can show the parent of a compound that is named as a salt. Where two headings read alike, the source gives them in different places. Marks after values point to notes of the source that are not given here.
# Tested on: subjects with MF
# [1] = patients who started at ≥680 mg
# [2] = started at ≥680 mg, 24 patients not requiring RBC transfusions at baseline
# [3] = subject 106-024, 800/680 mg/day, onset day 87, recovered/resolved
# [4] = treatment-emergent laboratory finding, MTD subjects (N=40)
# [5] = treatment-emergent, MTD subjects (N=40)
structure (smiles),measurement,setting,value
"Cc1cnc(Nc2ccc(OCCN3CCCC3)cc2)nc1Nc1cccc(S(=O)(=O)NC(C)(C)C)c1 [TG101348, N-tert-butyl-3-[(5-methyl-2-{[4-(2-pyrrolidin-1-ylethoxy)phenyl]amino}pyrimidin-4-yl)amino]benzenesulfonamide dihydrochloride monohydrate]",Grades 3/4 asymptomatic increase in creatinine,overall,0%
same,Grades 3/4 asymptomatic increase in serum lipase,overall,10%
same,Gr1/2 serum creatinine elevation,[1],38%
same,Gr1/2 transaminitis,[1],38%
same,Gr3 neutropenia,[1],15%
same,Gr3 thrombocytopenia,[1],20%
same,Gr4 neutropenia,[1],0%
same,Gr4 thrombocytopenia,[1],10%
same,asymptomatic hyperlipasemia,[1],33%
same,dose-limiting toxicity (DLT),"seen at 800 mg/day, dihydrochloride monohydrate",asymptomatic grade 3 or 4 amylasemia/lipasemia that was reversible; also recorded: asymptomatic grade 3 or 4 hyperamylasemia (with or without hyperlipasemia) that was reversible
same,Grade 3 anemia,[2],42 % of patients
same,Grade 4 anemia,[2],8 % of patients
same,"serious adverse event Neutropenia, CTCAE Severity Grade","subject 101-047, 680/680 mg/day, onset day 52, recovered/resolved",2
same,"serious adverse event Depression, CTCAE Severity Grade","subject 104-015, 360/520 mg/day, onset day 256, permanently discontinued, not recovered/not resolved",3*
same,"serious adverse event Hyperlipasemia, CTCAE Severity Grade","subject 105-013, 240/0 mg/day, onset day 356, recovered/resolved",4
same,"serious adverse event Thrombocytopenia, CTCAE Severity Grade","subject 105-013, starting dose/dose at event 240/360 mg/day, onset day 215, recovered/resolved",4
same,"serious adverse event Gallbladder pain, CTCAE Severity Grade","subject 105-056, 680/520 mg/day, onset day 95, recovered/resolved with sequelae",3
same,"serious adverse event Cerebrovascular accident, CTCAE Severity Grade","subject 105-056, 680/680 mg/day, onset day 22, recovered/resolved",4
same,"serious adverse event Hyperlipasemia, CTCAE Severity Grade","subject 105-059, 680/520 mg/day, onset day 28, recovered/resolved",3
same,"serious adverse event Hyperlipasemia, CTCAE Severity Grade","subject 105-059, 680/680 mg/day, onset day 8, recovered/resolved",3
same,"serious adverse event Dehydration, CTCAE Severity Grade","subject 106-024, 800/400 mg/day, onset day 474, recovered/resolved",3
same,"serious adverse event Tumor lysis syndrome, CTCAE Severity Grade","subject 106-024, 800/440 mg/day, onset day 366, recovered/resolved",3
same,"serious adverse event Dehydration, CTCAE Severity Grade",[3],2
same,"serious adverse event Diarrhea, CTCAE Severity Grade",[3],3
same,"serious adverse event Nausea, CTCAE Severity Grade",[3],2
same,"serious adverse event Vomiting, CTCAE Severity Grade",[3],2
same,"serious adverse event Pleuritic pain, CTCAE Severity Grade","subject 106-033, 680/680 mg/day, onset day 8, recovered/resolved",2
same,"serious adverse event Dehydration, CTCAE Severity Grade","subject 106-045, 680/440 mg/day, onset day 170, recovered/resolved",3
same,cytokine rebound upon discontinuation without prior dose reduction or tapering,subjects that were discontinued,did not experience “cytokine rebound”
same,emergence of transfusion requirement,subjects who initiated treatment at 680 mg/day,72%
same,emergence of transfusion requirement,subjects who initiated treatment at 240-520 mg/day,33%
same,ALT increased Grade 2,[4],8 (20%) subjects (%)
same,ALT increased Grade 3,[4],2 (5%) subjects (%)
same,ALT increased Grade 4,[4],0 subjects (%)
same,AST increased Grade 2,[4],5 (13%) subjects (%)
same,AST increased Grade 3,[4],1 (3%) subjects (%)
same,AST increased Grade 4,[4],0 subjects (%)
same,Creatinine increased Grade 2,[4],11 (28%) subjects (%)
same,Creatinine increased Grade 3,[4],0 subjects (%)
same,Creatinine increased Grade 4,[4],0 subjects (%)
same,Hyperamylasemia Grade 2,[4],0 subjects (%)
same,Hyperamylasemia Grade 3,[4],1 (3%) subjects (%)
same,Hyperamylasemia Grade 4,[4],1 (3%) subjects (%)
same,Hyperkalemia Grade 2,[4],3 (8%) subjects (%)
same,Hyperkalemia Grade 3,[4],2 (5%) subjects (%)
same,Hyperkalemia Grade 4,[4],1 (3%) subjects (%)
same,Hyperlipasemia Grade 2,[4],4 (10%) subjects (%)
same,Hyperlipasemia Grade 3,[4],3 (8%) subjects (%)
same,Hyperlipasemia Grade 4,[4],2 (5%) subjects (%)
same,Hypocalcemia Grade 2,[4],8 (20%) subjects (%)
same,Hypocalcemia Grade 3,[4],3 (8%) subjects (%)
same,Hypocalcemia Grade 4,[4],0 subjects (%)
same,Abdominal pain Grade 1,[5],5 (13%) subjects (%)
same,Abdominal pain Grade 2,[5],0 subjects (%)
same,Abdominal pain Grade 3,[5],0 subjects (%)
same,Abdominal pain Grade 4,[5],0 subjects (%)
same,Anorexia Grade 1,[5],7 (18%) subjects (%)
same,Anorexia Grade 2,[5],0 subjects (%)
same,Anorexia Grade 3,[5],1 (3%) subjects (%)
same,Anorexia Grade 4,[5],0 subjects (%)
same,Constipation Grade 1,[5],6 (15%) subjects (%)
same,Constipation Grade 2,[5],1 (3%) subjects (%)
same,Constipation Grade 3,[5],0 subjects (%)
same,Constipation Grade 4,[5],0 subjects (%)
same,Contusion Grade 1,[5],5 (13%) subjects (%)
same,Contusion Grade 2,[5],0 subjects (%)
same,Contusion Grade 3,[5],0 subjects (%)
same,Contusion Grade 4,[5],0 subjects (%)
same,Diarrhea Grade 1,[5],21 (53%) subjects (%)
same,Diarrhea Grade 2,[5],4 (10%) subjects (%)
same,Diarrhea Grade 3,[5],5 (13%) subjects (%)
same,Diarrhea Grade 4,[5],0 subjects (%)
same,Edema peripheral Grade 1,[5],7 (18%) subjects (%)
same,Edema peripheral Grade 2,[5],1 (3%) subjects (%)
same,Edema peripheral Grade 3,[5],0 subjects (%)
same,Edema peripheral Grade 4,[5],0 subjects (%)
same,Fatigue Grade 1,[5],2 (5%) subjects (%)
same,Fatigue Grade 2,[5],3 (8%) subjects (%)
same,Fatigue Grade 3,[5],1 (3%) subjects (%)
same,Fatigue Grade 4,[5],0 subjects (%)
same,Headache Grade 1,[5],4 (10%) subjects (%)
same,Headache Grade 2,[5],1 (3%) subjects (%)
same,Headache Grade 3,[5],0 subjects (%)
same,Headache Grade 4,[5],0 subjects (%)
same,Nausea Grade 1,[5],20 (50%) subjects (%)
same,Nausea Grade 2,[5],6 (15%) subjects (%)
same,Nausea Grade 3,[5],2 (5%) subjects (%)
same,Nausea Grade 4,[5],0 subjects (%)
same,Neutropenia Grade 3,[5],6 (15%) subjects (%)
same,Neutropenia Grade 4,[5],0 subjects (%)
same,Proteinuria Grade 1,[5],2 (5%) subjects (%)
same,Proteinuria Grade 2,[5],3 (8%) subjects (%)
same,Proteinuria Grade 3,[5],0 subjects (%)
same,Proteinuria Grade 4,[5],0 subjects (%)
same,Thrombocytopenia Grade 3,[5],8 (20%) subjects (%)
same,Thrombocytopenia Grade 4,[5],5 (13%) subjects (%)
same,Vomiting Grade 1,[5],20 (50%) subjects (%)
same,Vomiting Grade 2,[5],7 (18%) subjects (%)
same,Vomiting Grade 3,[5],1 (3%) subjects (%)
same,Vomiting Grade 4,[5],0 subjects (%)
